Test results taken from PubChem BioAssay (NCI).
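All cell lines were grown in 96-well plates and treated with compound for 48 hours. GI50: concentration for 50% inhibition of growth. TGI denotes the concentration required for complete inhibition of growth.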

Columns and labels:
Test in all cases: NCI anticancer screen, dose series, 48 h
CCRF-CEM leukemia = test system: CCRF-CEM leukemia
T-47D breast = test system: T-47D breast
SK-MEL-5 melanoma = test system: SK-MEL-5 melanoma
COLO 205 colon = test system: COLO 205 colon
HOP-92 NSCLC = test system: HOP-92 NSCLC
SNB-19 CNS = test system: SNB-19 CNS
SK-MEL-2 melanoma = test system: SK-MEL-2 melanoma
PC-3 prostate = test system: PC-3 prostate
HT29 colon = test system: HT29 colon
DU-145 prostate = test system: DU-145 prostate
SF-295 CNS = test system: SF-295 CNS
SK-OV-3 ovarian = test system: SK-OV-3 ovarian
UACC-62 melanoma = test system: UACC-62 melanoma
MALME-3M melanoma = test system: MALME-3M melanoma
MDA-MB-231 breast = test system: MDA-MB-231 breast
UO-31 renal = test system: UO-31 renal
SF-268 CNS = test system: SF-268 CNS
BT-549 breast = test system: BT-549 breast
A498 renal = test system: A498 renal
MOLT-4 leukemia = test system: MOLT-4 leukemia
OVCAR-8 ovarian = test system: OVCAR-8 ovarian
OVCAR-4 ovarian = test system: OVCAR-4 ovarian
SN12C renal = test system: SN12C renal
MDA-MB-435 = test system: MDA-MB-435
OVCAR-3 ovarian = test system: OVCAR-3 ovarian
OVCAR-5 ovarian = test system: OVCAR-5 ovarian
NCI-H23 lung = test system: NCI-H23 lung
HCT-15 colon = test system: HCT-15 colon

Question: `COc1cc2c(/C=C3/C(=O)Nc4c3ccc3ccccc43)c(Cl)n(C)c2cc1C` was tested. Which TGI (CCRF-CEM leukemia) did it give?
Answer: The TGI was 1060 nM.

Question: What about the GI50 (T-47D breast) of the same compound?
Answer: The GI50 was 16900 nM.

Question: What about the TGI (T-47D breast) of the same compound?
Answer: The TGI was greater than 100000 nM.

Question: And the GI50 (SK-MEL-5 melanoma)?
Answer: Its GI50 is 636 nM.

Question: What about the TGI (SK-MEL-5 melanoma) of the same compound?
Answer: The TGI was 1300 nM.

Question: What about the GI50 (COLO 205 colon) of the same compound?
Answer: The GI50 was 74.6 nM.

Question: And the TGI (COLO 205 colon)?
Answer: Its TGI is 180 nM.

Question: What about the GI50 (HOP-92 NSCLC) of the same compound?
Answer: Its GI50 is 705 nM.

Question: What about the TGI (HOP-92 NSCLC) of the same compound?
Answer: Its TGI is 22400 nM.

Question: What about the GI50 (SNB-19 CNS) of the same compound?
Answer: Its GI50 is 104 nM.

Question: And the TGI (SNB-19 CNS)?
Answer: Its TGI is 8450 nM.

Question: And the GI50 (SK-MEL-2 melanoma)?
Answer: The GI50 was less than 14.7 nM.

Question: And the TGI (SK-MEL-2 melanoma)?
Answer: The TGI was 10100 nM.

Question: What about the GI50 (PC-3 prostate) of the same compound?
Answer: Its GI50 is 132 nM.

Question: And the TGI (PC-3 prostate)?
Answer: Its TGI is 3570 nM.

Question: What about the GI50 (HT29 colon) of the same compound?
Answer: Its GI50 is less than 19.6 nM.

Question: What about the GI50 (DU-145 prostate) of the same compound?
Answer: The GI50 was 235 nM.

Question: What about the TGI (DU-145 prostate) of the same compound?
Answer: Its TGI is 599 nM.

Question: And the GI50 (SF-295 CNS)?
Answer: Its GI50 is less than 15.4 nM.

Question: What about the TGI (SF-295 CNS) of the same compound?
Answer: Its TGI is less than 29.1 nM.

Question: What about the GI50 (SK-OV-3 ovarian) of the same compound?
Answer: The GI50 was 177 nM.

Question: And the TGI (SK-OV-3 ovarian)?
Answer: Its TGI is 13000 nM.

Question: What about the GI50 (UACC-62 melanoma) of the same compound?
Answer: Its GI50 is 104 nM.

Question: What about the TGI (UACC-62 melanoma) of the same compound?
Answer: Its TGI is 15400 nM.

Question: And the GI50 (MALME-3M melanoma)?
Answer: Its GI50 is 156 nM.

Question: What about the TGI (MALME-3M melanoma) of the same compound?
Answer: Its TGI is 19400 nM.

Question: And the GI50 (MDA-MB-231 breast)?
Answer: Its GI50 is 53.9 nM.

Question: And the TGI (MDA-MB-231 breast)?
Answer: The TGI was 882 nM.

Question: What about the GI50 (UO-31 renal) of the same compound?
Answer: The GI50 was less than 18.3 nM.

Question: What about the TGI (UO-31 renal) of the same compound?
Answer: The TGI was 6170 nM.

Question: What about the GI50 (SF-268 CNS) of the same compound?
Answer: The GI50 was less than 22.3 nM.

Question: What about the TGI (SF-268 CNS) of the same compound?
Answer: The TGI was 18700 nM.

Question: What about the GI50 (BT-549 breast) of the same compound?
Answer: Its GI50 is less than 10 nM.

Question: And the GI50 (A498 renal)?
Answer: Its GI50 is 666 nM.

Question: What about the TGI (A498 renal) of the same compound?
Answer: Its TGI is 3040 nM.

Question: What about the GI50 (MOLT-4 leukemia) of the same compound?
Answer: The GI50 was less than 21.6 nM.

Question: What about the TGI (MOLT-4 leukemia) of the same compound?
Answer: Its TGI is 17300 nM.

Question: What about the GI50 (OVCAR-8 ovarian) of the same compound?
Answer: The GI50 was less than 10 nM.

Question: And the GI50 (OVCAR-4 ovarian)?
Answer: Its GI50 is 1520 nM.

Question: And the TGI (OVCAR-4 ovarian)?
Answer: The TGI was 11600 nM.

Question: What about the GI50 (SN12C renal) of the same compound?
Answer: The GI50 was 96.2 nM.

Question: What about the TGI (SN12C renal) of the same compound?
Answer: Its TGI is 3510 nM.

Question: And the GI50 (MDA-MB-435)?
Answer: The GI50 was less than 13.2 nM.

Question: And the TGI (MDA-MB-435)?
Answer: Its TGI is less than 19.7 nM.

Question: What about the GI50 (OVCAR-3 ovarian) of the same compound?
Answer: The GI50 was less than 26.3 nM.

Question: What about the TGI (OVCAR-5 ovarian) of the same compound?
Answer: Its TGI is 10500 nM.

Question: And the TGI (NCI-H23 lung)?
Answer: The TGI was 14700 nM.

Question: What about the GI50 (HCT-15 colon) of the same compound?
Answer: The GI50 was 899 nM.

Question: And the TGI (HCT-15 colon)?
Answer: The TGI was 12600 nM.
